The text below walks through data of ChEMBL document CHEMBL3217436, “Synthesis of new chromeno-annulated cis-fused pyrano[3,4-c]pyran derivatives via domino Knoevenagelhetero-DielsAlder reactions and their biological evaluation towards antiproliferative activity” (Medchemcomm, 2012).

Bounds are passed on as bounds.

For orientation: IC50 means the concentration that gives 50% inhibition. A low value points to greater potency in that assay.

One experiment relates to MDA-MB-231. In words: Antiproliferative activity against human MDA-MB-231 cells after 48 hrs by MTT assay. The experiment is classed as functional, cell-based. As to conditions: MDA-MB-231, 48 h.
The test system of a further experiment is SK-N-SH. The experiment is described as follows: Antiproliferative activity against human SK-N-SH cells after 48 hrs by MTT assay. The experiment is classed as functional, cell-based.
Another experiment concerns A549. In words: Antiproliferative activity against human A549 cells after 48 hrs by MTT assay. The experiment is classed as functional, cell-based. The following applies: A549, 48 h.
A further experiment concerns MRC5. In words: Antiproliferative activity against human MRC5 cells after 48 hrs by MTT assay. The experiment is classed as cell-based. As to conditions: MRC5, 48 h.

As to `Cc1oc2c3c(ccc2c(=O)c1C)OC[C@H]1[C@@H]3c2c(c3ccccc3oc2=O)OC1(C)C`, the IC50 is > 100 µM with MDA-MB-231, 1.05 µM in the experiment with SK-N-SH, 0.1 µM in the experiment on A549 and 0.6 µM with MRC5.

In the case of `Cc1oc2c3c(ccc2c(=O)c1C)OC[C@H]1[C@@H]3c2c(n(C)c(=O)n(C)c2=O)OC1(C)C`, the IC50 is > 100 µM in the experiment on MDA-MB-231, 1.06 µM in the experiment with SK-N-SH, 0.1 µM in the experiment with A549 and > 100 µM with MRC5.

`Cc1oc2c3c(ccc2c(=O)c1-c1ccccc1)OC[C@H]1[C@@H]3c2c(n(C)c(=O)n(C)c2=O)OC1(C)C`: the IC50 in the experiment on MDA-MB-231 is > 100 µM; in the experiment with SK-N-SH, 10.5 µM; with A549 it was > 100 µM; in the experiment with MRC5, > 100 µM.

Take `Cc1oc2c3c(ccc2c(=O)c1C)OC[C@H]1[C@@H]3C2=C(CCCC2=O)OC1(C)C`: the IC50 with MDA-MB-231, in the experiment with SK-N-SH, with A549 and with MRC5 was > 100 µM in each case.

With `Cc1coc2c3c(ccc2c1=O)OC[C@H]1[C@@H]3C2=C(CCCC2=O)OC1(C)C`, the IC50 in the experiment on MDA-MB-231, in the experiment with SK-N-SH, in the experiment with A549 and in the experiment on MRC5 was > 100 µM in each case.

For the compound `Cc1oc2c3c(ccc2c(=O)c1-c1ccccc1)OC[C@H]1[C@@H]3C2=C(CCCC2=O)OC1(C)C`, the IC50 in the experiment on MDA-MB-231, in the experiment on SK-N-SH, in the experiment with A549 and in the experiment on MRC5 was > 100 µM throughout.

For `Cc1oc2c3c(ccc2c(=O)c1C)OC[C@H]1[C@@H]3C2=C(CC(C)(C)CC2=O)OC1(C)C`, the IC50 in the experiment with MDA-MB-231, with SK-N-SH, in the experiment with A549 and with MRC5 was > 100 µM in each case.

Turning to `Cc1coc2c3c(ccc2c1=O)OC[C@H]1[C@@H]3C2=C(CC(C)(C)CC2=O)OC1(C)C`, the IC50 with MDA-MB-231, in the experiment with SK-N-SH, in the experiment with A549 and with MRC5 was > 100 µM each time.

Consider `Cc1oc2c3c(ccc2c(=O)c1-c1ccccc1)OC[C@H]1[C@@H]3C2=C(CC(C)(C)CC2=O)OC1(C)C`, for which the IC50 in the experiment on MDA-MB-231, with SK-N-SH, with A549 and with MRC5 was > 100 µM throughout.

Turning to `Cc1oc2c3c(ccc2c(=O)c1C)OC[C@H]1[C@@H]3CC(=O)OC1(C)C`, the IC50 in the experiment with MDA-MB-231 was > 100 µM; with SK-N-SH, > 100 µM; in the experiment with A549 it was 0.09 µM; in the experiment with MRC5 it was 0.6 µM.

On to `Cc1coc2c3c(ccc2c1=O)OC[C@H]1[C@@H]3CC(=O)OC1(C)C`, for which the IC50 in the experiment on MDA-MB-231 is > 100 µM; in the experiment with SK-N-SH, > 100 µM; in the experiment with A549 it was 11.2 µM; with MRC5, > 100 µM.

Regarding `CC(=O)C1=C(C)OC(C)(C)[C@H]2COc3ccc4c(=O)c(C)c(C)oc4c3[C@@H]12`, the IC50 in the experiment with MDA-MB-231 is > 100 µM; in the experiment on SK-N-SH, 10.7 µM; in the experiment with A549, > 100 µM; in the experiment on MRC5 it was > 100 µM.

`CCOC(=O)C1=C(C)OC(C)(C)[C@H]2COc3ccc4c(=O)c(C)c(C)oc4c3[C@@H]12`: the IC50 in the experiment with MDA-MB-231 is > 100 µM; in the experiment on SK-N-SH it was 10.8 µM; in the experiment on A549, 10.9 µM; in the experiment on MRC5, 0.9 µM.

With `Cc1nn(-c2ccccc2)c2c1[C@@H]1c3c(ccc4c(=O)c(C)c(C)oc34)OC[C@@H]1C(C)(C)O2`, the IC50 in the experiment with MDA-MB-231 is > 100 µM; in the experiment with SK-N-SH, 10.6 µM; with A549 it was > 100 µM; in the experiment on MRC5, > 100 µM.

With `Cc1nn(-c2ccccc2)c2c1[C@@H]1c3c(ccc4c(=O)c(-c5ccccc5)c(C)oc34)OC[C@@H]1C(C)(C)O2`, the IC50 in the experiment with MDA-MB-231, with SK-N-SH, with A549 and in the experiment on MRC5 was > 100 µM in each case.
